The test system of data set [1] is HUVEC normal cells. Briefly: Apoptosis, Annexin V-FITC/PI flow cytometry. It counts as cell-based, human. As to conditions: 50 μg/mL, 24 h; untreated approximately 7–8%. As for the experimental part:
(§1) SK-MEL-24 (human melanoma cell line—HTB-71) and HUVEC (human primary umbilical vein endothelial cells—CRL-1730) were purchased from the American Type Culture Collection (ATCC). HUVEC normal cells were used as a reference. Adherent cells were maintained in culture in DMEM/F12 medium added by 2 mM L-glutamine, 10% fetal bovine serum, 100 units/mL penicillin, 100 μg/mL streptomycin, and incubated at 37 °C in 5% CO2 humidified atmosphere. After 24 h, adherent cells were treated with different concentrations of the compounds for different timeframes. A 5-FU conventional oncology drug used in cancer treatments can be used as a positive control of the experiments. Cell treatments of compounds were carried out using concentrations of 200, 100, 50, 25, 12.5, 6.25, 3.125, and 1.56 μg/mL of the drug. Then, cells were detached with a nonenzymatic PBS/1 mM EDTA solution washed twice in PBS.
(§2) The apoptosis assay was performed according to the manufacturer’s instructions using the Annexin V-FITC kit from BD Biosciences. Cells treated and untreated with the experimental compound were resuspended in a cold binding buffer. The percentages of apoptotic cells were determined by double staining with Annexin V-FITC/PI. In each tube was added 400 μL of Annexin V binding buffer and the 5000 cells/sample for 15 min in the dark at room temperature. The cells were analyzed using a FACS CantoII flow-cytometer (Becton Dickinson—BD). The analysis was performed using DIVA 6.2 software to discriminate viable cells (FITC-PI-) from necrotic cells (FITC+PI+) and early apoptosis (FITC+PI-) from late apoptosis.

Data set [2] deals with SK-MEL-24 tumor cells. Briefly: Apoptosis, Annexin V-FITC/PI flow cytometry. The format is cell-based, human. The following applies: 5 and 50 μg/mL. The method, then: as §1, §2
Data set [3] can be described thus: Thermogravimetric analysis. It counts as physicochemical. The following applies: TGA, 10 °C/min, nitrogen. The method, then: Thermogravimetric analysis (TGA) was performed for NLC-DTX, NLC-Blank, and their components (DTX, GC, G43/01, MCT, S-PC-3, T80, mannitol) using thermal analyzer TGA Q5000IR (TA Instruments, New Castle, DE, USA). TGA curves were generated with a heating rate of 10 °C/min over a temperature range from room temperature to 700 °C, under a dynamic nitrogen atmosphere (50 mL/min). The samples were placed in a platinum pan (100 µL).

Data set [4] is described as follows: Docetaxel equilibrium solubility in molten solid lipids. The format is physicochemical. The following applies: melted state at 75 °C, 24 h. The method, then: To assess the solubility of the active substance, various solid lipids were examined (such as tetradecanoic acid, decanoic acid, palmitic acid, stearic acid, GMS-SE, GMS, sorbitan monostearate, cetyl palmitate, Gelucire® 43/01, and Suppocire® NAS 50). Initially, 500 mg of each solid lipid was accurately weighed and melted. Subsequently, excess docetaxel was added to the molten lipid. The drug–lipid mixture was kept at a constant temperature of 75 °C, thus maintaining a minimum of 10 °C above the melting point of the solid lipids. The mixture was stirred at 750 rpm for 24 h. Using preheated utensils, a predetermined amount of supernatant was carefully transferred into a 5 mL volumetric flask. The transfer was done by weight to ensure precision and consistency in sample size across all tests. The transferred sample was dissolved using a suitable solvent selected based on its compatibility with both the lipid and docetaxel. Choices like methanol, dichloromethane, DMSO, or their mixtures were used depending on their efficacy in dissolving the sample thoroughly. […]
For the quantitative analysis of docetaxel, a Jasco LC-4000 Series HPLC system (JASCO Corporation, Tokyo, Japan) containing a quaternary pump (model PU-4180), an autosampler (model AS-4150), a DAD detector (model MD-4010), and a column thermostat (model CO-4061) was employed. […]

In data set [5] the test system is HUVEC normal cells. Briefly: Cell cycle analysis by flow cytometry. The format is cell-based, human. The method, then:
as §1
(§3) In this experiment, 5 × 10^5 cells that had been previously fixed were washed and resuspended in PBS. The CycleTEST PLUS DNA Reagent kit from BD Biosciences was used according to the manufacturer’s protocol for the assay. The probes were kept in the dark and at 4 °C until data acquisition by flow cytometry (Becton Dickinson—BD) using a FACSCantoII flow cytometer from BD. The ModFIT v3.2 software was used to analyze the data and estimate the DNA index (DI) and progression through cell cycle phases.

The subject of data set [6] is SK-MEL-24 tumor cells. In words: Cell cycle analysis by flow cytometry. The format is cell-based, human. As for the experimental part: as §1, §3
On the set-up of data set [7]: method as in PMID 32164731, PMID 33531521, PMID 31310876, PMID 25974386. The following applies: cited from earlier work.
In data set [8] the test system is HUVEC normal cells. Briefly: MTS cytotoxicity assay. It counts as cell-based, human. The method, then: as §1, with “Cell treatments of compounds were carried out using concentrations of 200, 100, 50, 25, 12.5, 6.25, 3.125, and 1.56 μg/mL of the drug. Then, cells were detached with a nonenzymatic PBS/1 mM EDTA solution washed twice in PBS.” left out
All assays were performed in triplicate in 96-well microtiter plates with flat bottom (Falcon), using CellTiter 96 Aqueous One Solution Cell Proliferation Assay (Promega, Madison, WI, USA), an MTS-based colorimetric assay. […] The reduction of the tetrazolium compound to formazan was spectrophotometrically measured at λ = 492 nm using a Dynex plate reader (DYNEX Technologies MRS, Chantilly, VA, USA). The percentage of viability compared to untreated cells (considered 100% viable) was calculated with the formula:(2) Cell viability=absorbance of treated cells−absorbance of culture medium/absorbance of untreated cells−absorbance of culture medium×100 […]

Details of data set [9]: method as in PMID 32164731, PMID 25974386. As to conditions: cited from earlier work.

Converted amounts (≈) assume the structure as drawn.

The source of these data is paper PMC11279931, “Development and Evaluation of Docetaxel-Loaded Nanostructured Lipid Carriers for Skin Cancer Therapy” (Pharmaceutics, 2024).

In the case of `CC(=O)O[C@@]12CO[C@@H]1C[C@H](O)[C@@]1(C)C(=O)[C@H](O)C3=C(C)[C@@H](OC(=O)[C@H](O)[C@@H](NC(=O)OC(C)(C)C)c4ccccc4)C[C@@](O)([C@@H](OC(=O)c4ccccc4)[C@H]21)C3(C)C` [DTX, Docetaxel], in the data set with HUVEC normal cells [1], the apoptosis came to 12.3%. In the data set with SK-MEL-24 tumor cells [2] (24 and 48 h, untreated approximately 4–5%), the effect on apoptosis result is “sustained increases in apoptosis”. Moreover, the increase in apoptosis result with SK-MEL-24 tumor cells [2] (after 48 h, vs untreated) is “two-fold”. Also, the thermal stability limit result in data set [3] was “approximately 120 °C”. Further, the “docetaxel solubility in Gelucire 43/01” value in data set [4] is listed as 10 mg/g. For the same compound, the “docetaxel solubility in tetradecanoic acid” value in data set [4] is 16 mg/g. The cell cycle alterations entry in the data set on HUVEC normal cells [5] (50 μg/mL, 24 h) was “G2/M arrest”; with HUVEC normal cells [5] (50 μg/mL, 48 h) it was “a decrease in the G1 population, and an increase in the S phase”; with HUVEC normal cells [5] (24 h, concentration not given), “a decrease in the S phase accompanied by an increase in the G2 phase”; with HUVEC normal cells [5] (48 h, independent of the concentration), “an increase in the S phase and a significant decrease in the G1 phase”. Moreover, the cell cycle distribution result with SK-MEL-24 tumor cells [6] (5 μg/mL, 24 h and 48 h) is “decreases the G1 phase and increases the G2 phase”; with SK-MEL-24 tumor cells [6] (50 μg/mL, 24 h), “a decrease in the S phase accompanied by an increase in the G2 phase”; in the data set with SK-MEL-24 tumor cells [6] (50 μg/mL, 48 h), “a significant decrease in the S phase”. Also, the water solubility in data set [7] is reported as 4.93 µg/mL (≈ 6.1 µM). Moreover, the IC50 with HUVEC normal cells [8] (Homo sapiens, HUVEC, tested range 1.56–200 μg/mL, read-out: IC50 on HUVECs) is less than 1.56 µg/mL. In addition, in the data set on HUVEC normal cells [8] (all tested concentrations (1.56–200 μg/mL), after 24 and 48 h), the “cell death (reduction in HUVEC viability)” value was “over 50%”. Besides, the logp value in [9] is recorded as 4.1.
